Experimental data taken from PMC6222633, “Preclinical Pharmacokinetics of Scoparone, Geniposide and Rhein in an Herbal Medicine Using a Validated LC-MS/MS Method” (Molecules : A Journal of Synthetic Chemistry and Natural …, 2018).
Read-outs that look alike come from different tables or passages of the source.

Tests used:
[1] = Pharmacokinetics of scoparone, geniposide and rhein in rat plasma after oral administration of the herbal formula Yin-Chen-Hao-Tang (UPLC-MS/MS); type: in vivo, Male Sprague Dawley rats
Protocol: All samples were subjected to chromatographic separation using the Shimadzu UPLC system with an Acquity UPLC BEH C18 column (1.7 µm, 100 mm × 2.1 mm) (Waters Corp., Milford, MA, USA). Samples were maintained in the autosampler at 4 °C with […] of each being injected into the column. Chromatographic separations were conducted at 35 °C with a flow rate of 0.2 mL/min. The mobile phase was 1 mM ammonium acetate with 0.1% formic acid and methanol. A gradient elution was used from 20% methanol (0–2 min) to 95% methanol (3–11 min) then decreased to 20% methanol at 12 min. The overall run time is 20 mins. MRM transitions were scoparone (m/z 207 → 151), geniposide (m/z 406 → 227), rhein (m/z 283 → 240) and carbamazepine (m/z 237 → 194) for quantitation. Data acquisition was controlled with LabSolutions v. 5.60 SP1 software (Shimadzu, Kyoto, Japan).
Sample preparations were made using the protein precipitation process. A forty-five-microliter aliquot of blank plasma sample was mixed with 5 µL of internal standard solution and 100 μL […] was added. The mixture was vortexed for 5 min and centrifuged at 16,000× g for 10 min at 4 °C. The supernatant layer was then collected and transferred through a 0.22 μm membrane filter (0.22 μm, Millex-GV, Millipore, USA) to 1.5 mL autosampler vials. Finally, 20 µL was used for injection into the UPLC-MS/MS system.
Male Sprague Dawley rats weighing 230 ± 30 g were used for the following pharmacokinetic (PK) study. The rats were housed under controlled environmental conditions with free access to food and drinking water up to 12 h prior to experiments. The experimental protocol was approved by the Institutional Animal Ethics Committee of National Yang-Ming University, Taipei, Taiwan (IACUC1070112). All rats divided into two experimental groups were intragastrically fed pharmaceutical herbal product formula Yin-Chen-Hao Tang suspended in normal saline at 1 g/kg or 3 g/kg corresponding to the clinical daily dose of 9.7 g and 29.2 g in a 60 kg adult. Blood samples were collected via a polyethylene tubing (PE-50) implanted priory in the jugular vein of each rat in a heparin-rinsed vial. An aliquot of 100–120 µL blood was collected at time intervals of 0, 5, 15, 30, 60, 90, 120, 180, 240, 300 and 360 min after oral administration of the herbal product. Each group contained a total of six rats to diminish individual variation. All blood samples were immediately centrifuged as mentioned above (16,000× g for 10 min at 4 °C) and stored at −20 °C until analysis.
The pharmacokinetic parameters were calculated using the pharmacokinetic software WinNonlin Standard Edition, version 1.1 (Scientific Consulting Inc., Apex, NC, USA). The area under the plasma concentration-time curve (AUC), terminal elimination half-life (t1/2) and oral clearance (CL) were estimated using non-compartmental analysis. The maximum plasma concentration (Cmax) and time to reach the maximum concentration (Tmax) was directly applied from the plasma concentration-time curve. Pharmacokinetic parameters of each individual data set were calculated using WinNonlin Standard Edition, version 1.1 (Pharsight Corp., Mountain View, CA, USA). Statistics and graphics were performed with SPSS version 18.0 (SPSS Inc., Chicago, IL, USA) and SigmaPlot 10.0 software (Systat Software Inc., San Jose, CA, USA). All values were expressed as the mean ± standard deviation (S.D.).

[2] = parameters: method as in PMID 21945452; details: oral administration of 50–200 mg of rhein, healthy Chinese subjects; cited from earlier work
[3] = rat plasma, YCHT 3 g/kg p.o., mean ± S.D., n = 6
[4] = rat plasma, YCHT 3 g/kg vs 1 g/kg p.o.
[5] = male, Sprague Dawley, rat, in vivo
[6] = male, Sprague Dawley, rat, in vivo, po, 1 g/kg
[7] = male, Sprague Dawley, rat, in vivo, po, 3 g/kg

increase of AUC in the 3 g/kg group compared to the 1 g/kg group [1, 5] [fold] | ratio of AUC adjusted to the administered dose, high-dose group vs low-dose group [1, 5] [times] | AUC [1, 6] [ng·h/mL] | CL (clearance) [1, 6] [mL/min/kg] | Cmax [1, 6] [ng/mL] | MRT [1, 6] [h] | Tmax [1, 6] [h] | half-life [1, 6] [h] | AUC [1, 7] [ng·h/mL] | AUC/dose [1, 7] | CL (clearance) [1, 7] [mL/min/kg] | Cmax [1, 7] [ng/mL] | MRT [1, 7] [h] | Tmax [1, 7] [h] | half-life [1, 7] [h] | SMILES | also measured
– | – | – | – | – | – | – | – | – | – | – | – | – | – | – | COC(=O)C1=CO[C@@H](O[C@@H]2O[C@H](CO)[C@@H](O)[C@H](O)[C@H]2O)[C@@H]2C(CO)=CC[C@H]12 [Geniposide, geniposide] | AUC ([1]; male, Sprague Dawley, in vivo, po, rat plasma, YCHT 1 g/kg p.o., mean ± S.D., n = 6, read-out: AUC (converted)): 313 ng·h/mL; Cmax ([1]; male, Sprague Dawley, in vivo, po, rat plasma, YCHT 1 g/kg p.o., mean ± S.D., n = 6, read-out: Cmax): 145 ± 251 ng/mL; MRT ([1]; male, Sprague Dawley, in vivo, po, rat plasma, YCHT 1 g/kg p.o., mean ± S.D., n = 6, read-out: MRT (mean retention time) (converted)): 1.92 h; Tmax ([1]; male, Sprague Dawley, in vivo, po, rat plasma, YCHT 1 g/kg p.o., mean ± S.D., n = 6, read-out: Tmax (converted)): 1.35 h; half-life ([1]; male, Sprague Dawley, in vivo, po, rat plasma, YCHT 1 g/kg p.o., mean ± S.D., n = 6, read-out: t1/2 (elimination half-life)): 1.33 ± 0.3 h; AUC ([1]; male, Sprague Dawley, in vivo, po, rat plasma, YCHT 3 g/kg p.o., mean ± S.D., n = 6, read-out: AUC (converted)): 1580 ng·h/mL; Cmax ([1]; male, Sprague Dawley, in vivo, po, rat plasma, YCHT 3 g/kg p.o., mean ± S.D., n = 6, read-out: Cmax): 604 ± 256 ng/mL; MRT ([1]; male, Sprague Dawley, in vivo, po, rat plasma, YCHT 3 g/kg p.o., mean ± S.D., n = 6, read-out: MRT (mean retention time) (converted)): 2.53 h; Tmax ([1]; male, Sprague Dawley, in vivo, po, rat plasma, YCHT 3 g/kg p.o., mean ± S.D., n = 6, read-out: Tmax (converted)): 1.35 h; half-life ([1]; male, Sprague Dawley, in vivo, po, rat plasma, YCHT 3 g/kg p.o., mean ± S.D., n = 6, read-out: t1/2 (elimination half-life)): 1.43 ± 0.483 h; concentration at 180 min ([1]; male, Sprague Dawley, rat, in vivo, typical plasma sample collected 180 min after oral YCHT 3 g/kg): 287 ng/mL; CL (clearance) ([1]; rat plasma, YCHT 1 g/kg p.o., mean ± S.D., n = 6): 1403 ± 1018 mL/min/kg; AUC/dose [1, 3]: 31.63 ± 10.76; CL (clearance) [1, 3]: 259.8 ± 109.2 mL/min/kg; increase of AUC in the 3 g/kg group compared to the 1 g/kg group [1, 4]: 5.1 fold; ratio of AUC adjusted to the administered dose, high-dose group vs low-dose group [1, 4]: 1.7 times
6.8 | 2.3 | 485 | 3.710 ± 1.366 | 311 ± 166 | 1.77 | 0.2 | 2.02 ± 0.767 | 3310 | 66.18 ± 17.09 | 1.483 ± 0.357 | 1660 ± 805 | 1.93 | 0.383 | 1.73 ± 1.15 | O=C(O)c1cc(O)c2c(c1)C(=O)c1cccc(O)c1C2=O [Rhein, rhein] | pharmacokinetics, dose linearity [2]: Linear pharmacokinetics
7.5 | 2.5 | 15.9 | 394.7 ± 209.4 | 18 ± 12 | 0.317 | 0.233 | 0.433 ± 0.0833 | 119 | 2.374 ± 1.126 | 131.5 ± 123.6 | 132 ± 137 | 0.85 | 0.35 | 1.15 ± 0.917 | COc1cc2ccc(=O)oc2cc1OC [Scoparone, 6,7-dimethoxycoumarin] | –
